In ChEMBL document CHEMBL1153084, “Synthesis and HMG-CoA reductase inhibition of 2-cyclopropyl-4-thiophenyl-quinoline mevalonolactones” (Bioorg Med Chem, 2009):

Each molecule was assayed against T1, 3-hydroxy-3-methylglutaryl-coenzyme A reductase (Homo sapiens, UniProt P04035) (assay: Inhibition of HMG CoA reductase by spectrophotometry).
T1 sequence (P04035 whole entry): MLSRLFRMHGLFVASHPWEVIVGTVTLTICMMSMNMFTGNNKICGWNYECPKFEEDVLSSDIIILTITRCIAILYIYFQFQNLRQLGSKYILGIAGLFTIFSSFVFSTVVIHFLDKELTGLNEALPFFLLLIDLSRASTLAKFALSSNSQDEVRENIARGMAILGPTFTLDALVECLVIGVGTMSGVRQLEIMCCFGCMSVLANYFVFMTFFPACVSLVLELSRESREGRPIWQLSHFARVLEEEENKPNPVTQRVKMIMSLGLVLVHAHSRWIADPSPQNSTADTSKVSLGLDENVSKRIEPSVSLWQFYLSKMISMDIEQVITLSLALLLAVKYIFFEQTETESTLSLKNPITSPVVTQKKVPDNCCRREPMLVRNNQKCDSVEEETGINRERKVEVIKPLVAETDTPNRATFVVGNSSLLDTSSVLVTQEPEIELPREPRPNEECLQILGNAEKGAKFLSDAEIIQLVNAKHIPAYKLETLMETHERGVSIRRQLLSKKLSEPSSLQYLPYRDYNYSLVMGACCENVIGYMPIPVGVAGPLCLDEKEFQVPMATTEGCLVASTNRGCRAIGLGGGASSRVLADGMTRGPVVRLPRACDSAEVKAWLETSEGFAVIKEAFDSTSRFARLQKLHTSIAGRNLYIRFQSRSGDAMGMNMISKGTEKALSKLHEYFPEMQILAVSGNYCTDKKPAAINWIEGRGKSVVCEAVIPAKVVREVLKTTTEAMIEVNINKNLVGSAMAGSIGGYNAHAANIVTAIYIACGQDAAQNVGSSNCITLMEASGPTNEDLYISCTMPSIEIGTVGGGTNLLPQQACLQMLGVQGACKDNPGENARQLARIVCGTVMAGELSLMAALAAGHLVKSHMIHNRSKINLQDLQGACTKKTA

| Structure (SMILES) | IC50 |
| --- | --- |
| O=C1C[C@H](O)C[C@@H](/C=C/c2c(C3CC3)nc3ccc(F)cc3c2Sc2ccc(F)cc2)O1 | 6.93 µM |
| COc1cccc(Sc2c(/C=C/[C@@H]3C[C@@H](O)CC(=O)O3)c(C3CC3)nc3cc(F)c(F)cc23)c1 | 360 µM |
| CC(C)c1ccc(Sc2c(/C=C/[C@@H]3C[C@@H](O)CC(=O)O3)c(C3CC3)nc3cc(F)c(F)cc23)cc1 | 759 µM |
| O=C(O)C[C@H](O)C[C@H](O)/C=C/c1c(C2CC2)nc2ccccc2c1-c1ccc(F)cc1 [PITAVASTATIN CALCIUM] | 8.9 µM |
| O=C1C[C@H](O)C[C@@H](/C=C/c2c(C3CC3)nc3cc(Sc4ccc(F)cc4)c(F)cc3c2Sc2ccc(F)cc2)O1 | 45.7 µM |
| O=C1C[C@H](O)C[C@@H](/C=C/c2c(C3CC3)nc3ccccc3c2Sc2ccc(F)cc2)O1 | 62.4 µM |
| CC(C)c1ccc(Sc2c(/C=C/[C@@H]3C[C@@H](O)CC(=O)O3)c(C3CC3)nc3ccccc23)cc1 | 11.3 µM |
| COc1ccc2nc(C3CC3)c(/C=C/[C@@H]3C[C@@H](O)CC(=O)O3)c(Sc3ccc(F)cc3)c2c1 | 25.7 µM |
| COc1ccc2nc(C3CC3)c(/C=C/[C@@H]3C[C@@H](O)CC(=O)O3)c(Sc3ccc(C(C)C)cc3)c2c1 | 41.3 µM |
| COc1cccc(Sc2cc3nc(C4CC4)c(/C=C/[C@@H]4C[C@@H](O)CC(=O)O4)c(Sc4cccc(OC)c4)c3cc2F)c1 | 7.1 µM |
| COc1cccc(Sc2c(/C=C/[C@@H]3C[C@@H](O)CC(=O)O3)c(C3CC3)nc3ccc(F)cc23)c1 | 5.61 µM |
